According to a melting point compilation (Tetko et al.; mined from patent text by program, amines drawn as free bases though some values may be those of a salt):

Compound | melting point
CCc1nnc(NC(=O)C2c3ccccc3Oc3ccccc32)o1 | 256 to 257 °C
CCCc1c(OCCCOc2cccc3c2CCCC3)ccc2c1OC(CCCO)(CCCO)CC2O (stereo not drawn) | 123 to 124 °C
O=C1CCC(c2ccc(N=C=S)cc2)=NN1 | 182 to 183 °C
CC(C)c1c(C(=O)Nc2ccccc2)c(-c2ccc(F)cc2)cn1-c1ccccc1 | 192 to 194 °C
C=C(CCC(=O)N1C(=O)OC[C@H]1c1ccccc1)c1ccc(F)cc1F | 50 to 55 °C
O=C1c2ccccc2C(=O)N1CCNCCCO | 94 to 95 °C
Cc1nn(-c2cc(Sc3ccc(O)cc3)c(Cl)cc2Cl)c(=O)n1C(F)F | 228 to 229 °C
COc1nc(CC(=O)O)c([N+](=O)[O-])cc1C | 135 to 137 °C
CN(C[C@@H](CCO)c1ccc(Cl)c(Cl)c1)C(=O)c1ccccc1 | 123 to 125 °C
CS(=O)(=O)c1ccc(-c2cnn(-c3ccc(F)c(F)c3)c(=O)c2Oc2ccc(Br)cc2)cc1 | 196 to 199 °C
CC1=Nc2c(C)nn(C)c2C2=NC(C)CN12 (stereo not drawn) | 169 to 172 °C
CC(=O)NC[C@H]1CN(c2ccc(N3CCC(=CC#N)C(C)(C)C3)c(F)c2)C(=O)O1 | 150 to 152 °C
Cc1[nH]c(C=O)c(C)c1CCO | 125 to 127 °C
CCOc1cc2c(c3c1[nH]c1ccc(O)cc13)C(=O)N(CCN(C)C)C2=O | 260 to 261 °C
CCCCCOc1ccc(C#CC2(O)CN3CCC2CC3)cc1 (stereo not drawn) | 153 to 154 °C
CN(CCOc1ccc(CC(Sc2ccccc2)C(=O)O)cc1)c1nc2ccccc2o1 (stereo not drawn) | 144 to 147 °C
O=C(c1ccccc1)N1Cc2ccccc2Oc2ccc(Cl)cc21 | 103 to 106 °C
Cc1nn(-c2c(Cl)cc(C(F)(F)F)cc2Cl)nc1C(=O)O | 185 to 186 °C
COc1cc(-n2nc(C)[nH]c2=O)c(F)cc1Cl | 193 to 195 °C
CC[C@@H](O)C1(c2onc(-c3ccc(O)cc3)c2-c2ccccc2)CC1 | 163 to 164 °C
CC(C)c1nc(CN(C)C(=O)NC(C(=O)NC(Cc2ccccc2)CC(O)C(Cc2ccccc2)NC(=O)OCc2cncs2)C(C)C)cs1 (stereo not drawn) | 122 to 123 °C
CC(O)=C(C#N)C(=O)Nc1cccc(F)c1 | 136 to 138 °C
CN(C(=O)c1ccccc1)C(=N[N+](=O)[O-])NCc1cnc(Cl)s1 | 170 to 172 °C
Nc1nc2c(OCCO)cccc2o1 | 124 to 126 °C

Compound | melting point
CCOC(=O)C(=CNc1ccccc1CO)C(=O)C(C)C | 72 to 84 °C
Cc1cc(Cl)cc2c(-c3ccc(Cl)cc3)onc12 | 151 to 152 °C
O=C(O)CCc1ccc(Oc2ccc3c(c2)S(=O)(=O)N=C2CCCN23)cc1 | 216 to 222 °C
CCCCc1nc(CCO)c[nH]1 | 92 to 93 °C
Clc1cc2cc[nH]c2cn1 | 192 to 194 °C
O=c1[nH]c2cc(Cl)cc([N+](=O)[O-])c2[nH]c1=O | 315 to 317 °C
N#CCSc1cc(F)cc(F)c1N | 66 to 67 °C
COCc1nc(N)nc(N)c1-c1cc(Cl)cc(Cl)c1Cl | 265 to 268 °C
O=C(N[C@H]1CC[C@H](CCN2CCN(c3nccc4c3CCO4)CC2)CC1)c1ccc2c(c1)OCO2 | 244 °C
CC(C)[C@@H](NC(=O)c1cnc(N2CCC(N3C(=O)OCc4ccccc43)CC2)c(Cl)c1)C(N)=O | 140 to 143 °C
CC(C)Cn1cnc2c(NN)nc3ccccc3c21 | 202 to 205 °C
Nc1ccc(C2=NN3C(=O)OCC3Cc3cc4c(cc32)OCO4)cc1 (stereo not drawn) | 173 to 175 °C
Cc1cc(C)c2c(c1)C(Nc1ncnc(N)n1)CCC2 (stereo not drawn) | 178 to 180 °C
ClC(Cl)(Cl)c1cnnc2ccccc12 | 137 °C
O=C1CCC(N2C(=O)c3cccc(CNC(=O)Nc4ccc5ccccc5c4)c3C2=O)C(=O)N1 (stereo not drawn) | 201 to 203 °C
COC(=O)c1cc(=O)c(O)co1 | 184 to 186 °C
O=C(O)CCCCCOc1cccc2occc12 | 86 to 87 °C
[N-]=[N+]=NC(c1ccccc1)C(O)c1ccccc1 (stereo not drawn) | 59 to 60 °C
CC(=O)N[C@@H](C)c1ccc(CO)cc1 | 103 to 104 °C
CC1Nc2ccc(-c3coc(C#N)c3)cc2C(C)(C)O1 (stereo not drawn) | 116 to 118 °C
O=C(O)CN(Cn1nnc2ccccc21)Cn1nnc2ccccc21 | 163 to 166 °C
Clc1ccc(N2CCN(CCCc3c4c(nn3-c3ccccn3)CCCC4)CC2)cc1 | 101 to 103 °C
CCOC(=O)C1(CC(=O)Nc2cccnc2)N=C(c2ccc(Cl)cc2)c2c(sc(C)c2C)-n2c(C)nnc21 (stereo not drawn) | 133 to 135 °C
CC(C)(C)c1cc(C(c2ccc(F)cc2)N2CCCCC2)c(O)c(C(C)(C)C)c1 (stereo not drawn) | 135 to 136 °C

Compound | melting point
COc1cc(/C=C/[N+](=O)[O-])cc(OC)c1 | 132 °C
O=C(c1ccccc1)c1cc2c(s1)SCCc1cc(=O)n(-c3ccc(Cl)cc3)nc1-2 | 180 to 182 °C
c1ccc(Cc2cnc(-c3ccccc3)c(-c3ccccc3)n2)cc1 | 118 to 119 °C
Cn1ncc2[nH]c3cccc(-c4ccc(O)cc4)c3c(=O)c21 | > 300 °C
COc1ccc2c(c1)C13CCN(C#N)C(C2)C1CC(C)C(=O)C3 (stereo not drawn) | 188 to 192 °C
O=c1c(N2CCN(c3ccncc3)CC2)cn(Cc2ccccc2)c2cc(O)ccc12 | 141 to 146 °C
COc1n[nH]c(=O)n1C | 146 °C
Cc1ccc2c(O)c(C(=O)O)cnc2c1 | 264 to 265 °C
CCOC(=O)CC(C)(O)c1ccc(-c2ccccc2)cc1 (stereo not drawn) | 58 to 60 °C
O=c1oc2c(c(O)c1C(c1ccccc1)C1CC1)CCCCC2CC1CCCOC1 (stereo not drawn) | 82 to 90 °C
Cc1cc2c(cc1C)C(C(=O)O)SCC2=O (single isomer, unassigned; (-)) | 177 to 178 °C
CC(C)(C)C#CC(=O)C#CC(C)(C)C | 62 to 63.5 °C
CC(C)(C)OC(=O)NC(=S)NC(=O)OC(C)(C)C | 124 to 127 °C
CCCCc1c(Cl)nc(O)nc1Cl | 73 to 75 °C
CCCCC1(N(C)C)CC=C(c2c[nH]c3ncccc23)CC1 (stereo not drawn) | 142 to 145 °C
Cc1ccc(-c2cn(C)cc(-c3cccc(C(F)(F)F)c3)c2=O)cc1Br | 158 to 161 °C
O=c1cc(-c2ccccc2)oc2ccc(OCCCCCN3CCC(O)CC3)cc12 | 128 to 129 °C
COc1cc(N)c(Cl)cc1C(=O)NC1CCN(CCCC(=O)N2C(C)CCCC2C)CC1OC (stereo not drawn) | 202 °C
CCCCc1cc(=O)c2ccccc2[nH]1 | 140 °C
CC(C)=CCN1Cc2cc(Cl)cc3[nH]c(=S)n(c23)C[C@@H]1C | 186 °C
Sc1nc2cc(N3CCNCC3)ccc2[nH]1 | 260 to 261 °C
C#CC1(O)CCC2(C)C(CCC3C2CCC2(C)C(C(=O)CSCCO)CCC32)C1 (stereo not drawn) | 122 to 126 °C
CCOCC1(C)CCCSc2cc(/C=C/c3ccc(C(=O)O)cc3)ccc21 (stereo not drawn) | 186 to 187 °C

Results, then the molecule that gave them:

melting point | Compound
180 °C | COc1ccc(Br)c(C(=O)N2CCN(S(=O)(=O)c3ccc(Br)cc3)CC2)c1
46 to 47 °C | COC(=O)CC(CSc1nc2ccccc2s1)C(=O)OC (stereo not drawn)
86 to 87 °C | COC(=O)c1ccc(/C=C(\C)c2ccc3c(c2)SC(C)(C)S3)cc1
178 to 180 °C | CCCc1ccnc2c(=O)[nH]c(-c3cc(S(=O)(=O)N4CCNCC4)ccc3OCC)nc12
40 to 41 °C | Cc1cc2c(-c3cccc(C(F)(F)F)c3)nc(COCC(F)(F)F)nc2s1
247 to 249 °C | CN(c1nc(-c2cc3ccccc3[nH]c2=O)cs1)S(=O)(=O)c1cccc(F)c1
161 to 163 °C | Cc1cnc(CCCCCNc2ncc(Cc3ccc(C)nc3)c(=O)[nH]2)c(N)c1
174 to 177 °C | CC(C)c1cccc(C(C)C)c1NC(=O)NCC1(c2c(Cl)cccc2Cl)CCC1
173 to 175 °C | O=C(NCc1ccc(F)cc1)c1ccnc(N2CCN(C(F)(F)c3ccc(C(F)F)cc3)C2=O)c1
138 to 140 °C | CCCN(c1ccc(O)c(Cl)c1)S(=O)(=O)c1ccc(O)cc1
202 to 204 °C | O=C(Nc1ccc(Oc2cccc3c2CCC3=O)nc1)c1ccc(Cl)c(Cl)c1
185 °C | CC(=O)OC1CSC(Oc2ccnc(-c3cccnc3)c2)C(OC(C)=O)C1OC(C)=O (stereo not drawn)
200 °C | O=C(NC(=O)c1c(F)cccc1Cl)Nc1ccc(C(F)(F)F)c(F)c1
223 to 224 °C | CC(C)(C)C(=O)OCOC(=O)c1[nH]c2ccccc2c1Nc1ccncc1
147 to 151 °C | COc1ccc2cc(C(C)COC(=O)c3cc(O)c4c(c3)C(=O)c3cccc(O)c3C4=O)ccc2c1 (stereo not drawn)
114 to 116 °C | CCOC(=O)c1cnccc1NC(=O)Cc1c(F)cccc1Cl

melting point | Compound
180 to 181 °C | CCOCCNC(=O)c1cc2c(nc(C)n2C)c2c1CCC1(Cc3ccccc3C1)N2
123 to 124 °C | COC(=O)c1ccc(S(=O)(=O)C2CCN(CCc3ccc(F)cc3F)CC2)cc1
87 to 89 °C | CCN(CC)CCOc1ccc(Nc2nccc(-c3cccnc3)n2)cc1
174 °C | CCCn1nc(-c2c(-c3ccccc3)nn3ccc(OC)cc23)ccc1=O
234 °C | Cc1cc(C#N)cc(C(=O)Nc2ccc(Cl)cn2)n1
241 to 242 °C | CN(c1cccc2cc(C(=O)O)[nH]c12)S(=O)(=O)c1nccn1C
162 °C | O=Cc1cc2c3ccccc3ccc2c2sccc12
84 to 85 °C | Cc1cc(OCc2coc(C=Cc3ccc(OC(F)(F)F)cc3)n2)ccc1COCCn1ccnn1
160 to 162 °C | CCc1cc(Oc2ccc(NC(=O)Nc3ccc(C)cc3)cc2)ncn1
136 to 137 °C | CCOC(=O)Cc1nnc(-c2ccccn2)[nH]c1=O
208 to 210 °C | CCc1c(C(=O)OC(C)C)ncc2[nH]c3ccc4sc(NC(C)=O)nc4c3c12
205 to 206 °C | CNc1nc(C)c(-c2ccnc(Nc3cccc(S(=O)(=O)NCCOC)c3)n2)s1
201 to 203 °C | Cc1nc(N2CCN(Cc3ccc(F)cc3)C2=O)sc1C(N)=O
80 to 81 °C | COC(=O)C[C@H](O)C[C@H](O)CCc1c(-c2ccc(F)cc2)c(-c2ccccc2)c(C(=O)Nc2cccc(S(N)(=O)=O)c2)n1C(C)C
216 to 218 °C | Nc1nc(N)nc(Cc2cc3ccccc3s2)n1
174 to 175 °C | COC(=O)c1ccc(NC(=O)/C=C/c2c(C)noc2-c2ccccc2)cc1
